US20140009887A1, “FLUORINATED OXIRANES AS HEAT TRANSFER FLUIDS” (3M INNOVATIVE PROPERTIES COMPANY, priority 2011, published 2014)

What was measured:
[1] = reported in Climate Change 2007, IPCC Fourth Assessment Report; cited from earlier work
[2] = Normal boiling point (thermophysical properties); assay type: physicochemical
Description: (§1) The useful liquid range (between the pour point and the normal boiling point) of the fluorinated oxiranes (Examples 1-3) are similar to perfluorocarbons (Comparative 1), perfluoroketones (Comparative 2), and perfluoroethers (Comparative 3). The specific heat capacity of the Comparatives is also very similar to the exemplary fluorinated oxiranes.

[3] = Pour point (thermophysical properties); assay type: physicochemical
Description: as §1

Kinematic viscosity = assay type: physicochemical; conditions: for Viscosity @ 25° C.: kinematic viscosity; for Low temperature kinematic viscosity (in words): compared with fluids close in boiling point, FIG. 1 and FIG. 2
Description: as §1
The viscosity impacts the heat transfer performance and liquid pumping power.

Vapor pressure = assay type: physicochemical
Description: as §1

Specific heat capacity = assay type: physicochemical
Description: as §1

[4] = Atmospheric lifetime from kinetic studies for reaction with hydroxyl radical; assay type: physicochemical; conditions: based on kinetic studies for reaction with hydroxyl radical
Description: The atmospheric lifetimes of C6F14 and CF3OCF(CF3)CF2OCF2OCF3 are reported as 3200 years and 800 years, respectively (see Climate Change 2007: The Physical Science Basis. Contribution of Working Group I to the Fourth Assessment Report of the Intergovernmental Panel on Climate Change, Solomon, S., D. Qin, M. Manning, Z. Chen, M. Marquis, K. B. Averyt, M. Tignor and H. L. Miller (eds.), Cambridge University Press, Cambridge, United Kingdom and New York, N.Y., USA, 996 pp, 2007.). […] Based on kinetic studies for reaction with hydroxyl radical, 2,3-difluoro-2-(1,2,2,2-tetrafluoro-l-trifluoromethyl-ethyl)-3-trifluoromethyl-oxirane has an estimated atmospheric lifetime of 20 years.

[5] = Hydrolytic stability: fluoride ion in water phase after aging with deionized water; assay type: physicochemical; conditions: for F concentration after 30 min at 25° C. / F concentration after 4 hours at 50° C.: 5 g material + 5 g deionized water; for F concentration after 30 min at 25° C.: agitated 30 min at room temperature (~25° C.); for F concentration after 4 hours at 50° C.: monel pressure vessel
Description: Example 1 and Comparatives 1 and 2 were tested for hydrolytic stability at room temperature (˜25° C.) and 50° C. Room temperature testing was conducted by placing 5 grams of test material along with 5 grams of deionized water in new polypropylene, centrifuge tubes which were then sealed and agitated for 30 minutes using a shaker set at low speed. Elevated temperature testing was carried out by placing 5 grams of test material along with 5 grams deionized water in a clean monel pressure vessel which was sealed and placed in a convection oven set at 50° C. for 4 hours. After aging, the fluoride concentrations were determined by mixing 0.5 ml of the water phase from each sample with 0.5 ml of TISAB II buffer solution and measuring fluoride ion concentration using a calibrated fluoride selective electrode connected to a pH/millivolt meter (both the electrode and buffer solutions are available from Thermo Scientific Orion, Beverly, Mass.). The hydrolytic stability of Example 1, Comparative Example 1 and Comparative Example 2 were determined and are reported as parts per million by weight (ppmw) of fluorine in Table III below.

[6] = Dielectric breakdown strength according to ASTM D877; assay type: physicochemical; conditions: ASTM D877, model LD60 liquid dielectric test set
Description: In applications where the direct contact of energized, electronic components by the heat transfer fluid occurs, whether intended or otherwise, the need exists for fluids with dielectric breakdown strengths greater than around 8 megavolts/meter (MV/m), measured according to ASTM D877. Such high dielectric breakdown strengths help to avoid damage to the electronic components through short circuits.
The dielectric breakdown strengths of Example 1 and 3 were determined according to ASTM D877, using a model LD60 liquid dielectric test set available from Phenix Technologies, Accident, Md. The breakdown strengths for example 1 and 3 were 15.5 MV/m and 17.3 MV/m respectively.

Molecule	Atmospheric lifetime [1] [years]	Normal Boiling Point [2] [°C]	Pour Point [3] [°C]	Viscosity @ 25° C. (Kinematic viscosity)	Vapor Pressure @ 25° C. (Vapor pressure) [kPa]	Specific Heat Capacity (Specific heat capacity) [J/kg-K]	Estimated atmospheric lifetime [4] [years]	F concentration after 30 min at 25° C. [5] [ppmw]	F concentration after 4 hours at 50° C. [5] [ppmw]	Low temperature kinematic viscosity (in words) (Kinematic viscosity)	Dielectric breakdown strength [6] [MV/m]	Hydrolytic stability (comparison in words) ([5]; room temperature and 50° C.)
FC(F)(F)OC(F)(F)OC(F)(F)C(F)(OC(F)(F)F)C(F)(F)F (stereo not drawn) [CF3OCF(CF3)CF2OCF2OCF3]	800											
FC(F)(F)C(F)(F)C(F)(F)N(C(F)(F)C(F)(F)C(F)(F)F)C(F)(F)C(F)(F)C(F)(F)F [Comparative 4, Perfluorotripropylamine]		130	−50	7.5 ×10^−7 m^2/s	1.4	1100						
FC(F)(F)C(F)(F)C1(F)OC1(C(F)(F)F)C(F)(F)F (stereo not drawn) [2-fluoro-2-pentafluoroethyl-3,3-bis-trifluoromethyl-oxirane]							77					
O=C(C(F)(F)C(F)(F)F)C(F)(C(F)(F)F)C(F)(F)F [Comparative 2, Dodecafluoro-2-methylpentan-3-one]		49	−108	4.0 ×10^−7 m^2/s	40.4	1103		1.13	5.89			
FC1(F)C(F)(F)C(F)(F)C2(F)OC2(F)C1(F)F (stereo not drawn) [Example 2, 1,2,2,3,3,4,4,5,5,6-decafluoro-7-oxa-bicyclo [4.1.0]heptane]		56.1	−88	6.6 ×10^−7 m^2/s	30.3	1083				better low temperature viscosity		
CCOC(F)(C(F)(F)C(F)(F)C(F)(F)F)C(F)(C(F)(F)F)C(F)(F)F (stereo not drawn) [Comparative 3, 2-trifluoromethyl-3-ethoxydodecafluorohexane]		128	−100	7.7 ×10^−7 m^2/s	2.1	1128						
FC(F)(F)C(F)(F)C(F)(F)C(F)(F)C(F)(F)C(F)(F)F [Comparative 1, Perfluorohexane]	3200	56	−90	3.8 ×10^−7 m^2/s	30.0	1100		0.09	0.23			
HFP Trimer-Oxirane [Example 3]		121.9	−103	12.5 ×10^−7 m^2/s	1.6	869				acceptable viscosity for heat transfer applications as low as −40 °C	17.3	
FC(F)(F)C1(F)OC1(F)C(F)(C(F)(F)F)C(F)(F)F (stereo not drawn) [Example 1, 2,3-difluoro-2-(1,2,2,2-tetrafluoro-1-trifluoromethyl-ethyl)-3-trifluoromethyl-oxirane]		51.7	−145	3.7 ×10^−7 m^2/s	36.0	1145	20	0.14	0.13	better low temperature viscosity	15.5	comparable to that of comparative 1 and better than comparative 2
